Experimental data reported in patent US7981898B2, “Methods of enhancing mucosal hydration and mucosal clearance by treatment with sodium channel blockers and osmolytes” (Parion Sciences, Inc., priority 2006, dated 2011).

Tested on: Primary canine bronchial epithelia (CBE)
Assay: Gravimetric measurement of surface liquid volume on primary bronchial epithelial cultures at air-liquid interface (Assay #4)
Format: cell-based
Protocol: 4. Durability of Novel ENaC Blockers with or without Osmolytes on Airway Surface Liquid on an in vitro Cell Culture Model.
Using a gravimetric (weighing) procedure, the luminal surface liquid (mass/volume) on primary bronchial epithelial cultures grown at an air/liquid interface on permeable membrane supports (Corning) are measured, and changes in luminal surface liquid volume are recorded for up to 8 h. An applied starting volume of buffer (Krebs-Henseleit Bicarbonate Buffer Solution) with and without equimolar concentrations (0.1-100 μM) of selected novel or commercially available sodium channel blockers with or without osmolytes are added and at which point the experiment is started. The permeable supports are then reweighted at select time points and the mass/volume recorded. The data is then analyzed determining the changes in surface liquid mass/volume form beginning to the end of the 8 hour time frame.
To measure the effects of novel sodium channel blockers with or without osmotically active agents on surface liquid volume on airway surface liquid an in vitro cell culture model was used as described above, Assay #4. The effects of an ionic osmolyte, 1.5% NaCl (hypertonic saline), with or without 10 μM of compound 1 before and after adding 1.5% NaCl and compared it to isotonic buffer (vehicle) (FIG. 1) on surface liquid volume was measured over 8 hours. Using the same method (Assay #4) the effects of a non-ionic osmolyte mannitol at 4.2 and 8.4 mg/mL were compared to compound 1 and isotonic buffer (vehicle) (FIG. 2), and also by combining mannitol (4.2 and 8.4 mg/mL) with compound 1 at 1 and 10 μM (FIG. 3) on surface liquid volume was measured. The effects of compound 2 with an ionic osmolyte, 1.5% NaCl (hypertonic saline), was compared to compound 1 and hypertonic saline (1.5% NaCl), compound 1 in isotonic buffer, compound 2 in isotonic buffer, 1.5% NaCl, and isotonic buffer (vehicle) (FIG. 4) on changes in surface liquid over 8 hours. […]

N=C(NCCCCc1ccc(OCC(O)CO)cc1)NC(=O)c1nc(Cl)c(N)nc1N (stereo not drawn) [Compound 1]
volume expansion (Compound 1 (10 μM) with pre or post administration of 1.5% NaCl solution, maintained for 8 hours, n=12): 132+13%
inhibition of volume depletion (surface liquid volume) (Compound 1 alone at 10 μM, for over 8 hours): 74.7 ± 8.7%
duration of the increase in ASL volume (hypertonic saline (1.5% NaCl) combined with Compound 1 (10 μM)): over 8 h
